Several values for one entry are separate records, joined by “and”; a condition that tells them apart may be missing. Identical values can stand only once.
Columns and labels:
[1] = tested on: patients with panic disorder; experiment: Frequency of major and minor panic attacks; type: in vivo, human; conditions: for The frequency of major panic attacks 6 months after treatment, Mean / The frequency of major panic attacks 6 months after treatment, Median / Changes Minor Panic Attacs_V6_V1, Mean / Changes Minor Panic Attacs_V6_V1, Median / Changes_Major Panic Attacs_V6_V1, Mean / Changes_Major Panic Attacs_V6_V1, Median: per month; for Changes Minor Panic Attacs_V6_V1, Mean / Changes Minor Panic Attacs_V6_V1, Median / Changes_Major Panic Attacs_V6_V1, Mean / Changes_Major Panic Attacs_V6_V1, Median: vs before treatment
Protocol: (§1) This investigator-initiated study was performed under a prospective clinical trial protocol approved by the Institute of Mental Health and Addictology, which is accredited by the Ministry of Health of the Russian Federation to conduct clinical trials (#57689). Study conduct was in compliance with all ethical standards and good clinical practice. Ninety outpatients with a diagnosis of “panic disorder» (F41.0) according to ICD-10 were enrolled through the Institute of Mental Health and Addictology. Five patients dropped out of the study due to minor side effects, predominantly lightheadedness and headaches, and 4 patients dropped out of the study for unspecified reasons. As the intention to treat analysis was not utilized due to the open label design of the study, 81 patients with PD (49 women and 32 men), mean age was 35.2 years (range […]) were studied. Patients were randomized into 2 groups: with “pure” PD (group 1) and “comorbid” PD, when it was co-diagnosed with other mental illnesses (group 2). All patients with isolated PD (Group 1, n=42) received monotherapy with xenon at the aforementioned schedule, while the majority of patients (94.9%) with PD and comorbid conditions, which were predominantly depression (group 2, n=39), in addition to xenon administration continued treatment for comorbid psychiatric disorders, which mainly consisted of antidepressants (SSRIs and SNRIs). In these patients, the reason for xenon treatment was the increase in the frequency and severity of panic attacks despite ongoing treatment with stable pharmacotherapy of at least 3 to 6 months' duration.
(§2) Administration of xenon was performed through inhalation of xenon-oxygen mixtures that were escalated from 15%/85% to 30%/70% with titration increments of 5% per session. Each patient in the study underwent between 6 and 7 treatments with xenon-oxygen mixture. The first three sessions were carried out daily and from session 4 onward—every other day. The selected dosing regime and the composition of the gas mixtures were based on the historical evidence of safety of subanesthetic use of xenon in imaging.
(§3) Medical grade xenon (“medksenon»®, 99.9999%, manufacturer: Atommedcenter, Moscow, Russia) and medical grade oxygen in separate containers were admixed. Mixing and administration of gases in preset concentration and volume was accomplished with the use of the medical device MAGi-AMTS1, which enables the operator to adjust the concentration of xenon in the gas mixture, and which contains the electronic flow meter with a software module that allows for such adjustments. Administration of xenon-oxygen mixture to the patient was carried out via a face mask. Patients were asked to slowly inhale, holding breath for 5 to 10 seconds; exhale into the loop and after 35-40 seconds exhale outside the contour and breath in the new portion of gas mixture. Xenon inhalation lasted from 2.5 to 4 minutes, and the xenon consumption was capped at 3.0 liters per procedure. The patients were assessed subjectively by the provider, while the vital signs (pulse, blood pressure, oxygen saturation) were continuously monitored.
(§4) Patients were evaluated after each xenon inhalation and at 30 and 180 days after completion of treatment. To this end, we employed clinical psychopathological and clinical catamnestic methods, and psychometric scales that are widely used internationally to assess the treatment of mental disorders. Scale Assessment, Zung Self-Rating Anxiety Scale (SAS) was performed prior to starting therapy (V1), and at 1 and 6 months after treatment. According to this scale, SAS index of less than 45 points corresponds to the normal value, 45-59—to mild-to-moderate degree of anxiety, 60-74—to high degree of anxiety, more than 75—to an extremely high-level of anxiety. […]

[2] = tested on: patients with panic disorder; experiment: Clinical Global Impression Scale, improvement subscale (CGI-I); type: in vivo, human
Protocol: as §1, §2, §3, §4

[3] = tested on: patients with panic disorder; experiment: Hospital Anxiety and Depression Scale, depression subscale (HADS_D); type: in vivo, human; conditions: for HADS_D: patients with “clinically severe depression”: end of the active phase of treatment
Protocol: as §1, §2
(§5) Medical grade xenon (“medksenon»®, 99.9999%, manufacturer: Atommedcenter, Moscow, Russia) and medical grade oxygen in separate containers were admixed. […] The patients were assessed subjectively by the provider, while the vital signs (pulse, blood pressure, oxygen saturation) were continuously monitored.
Patients were evaluated after each xenon inhalation and at 30 and 180 days after completion of treatment. […]

[4] = tested on: patients with panic disorder; experiment: Tolerability of xenon therapy in the clinical trial; type: in vivo, human; conditions: mainly headache and dizziness
Protocol: This investigator-initiated study was performed under a prospective clinical trial protocol approved by the Institute of Mental Health and Addictology, which is accredited by the Ministry of Health of the Russian Federation to conduct clinical trials (#57689). Study conduct was in compliance with all ethical standards and good clinical practice. Ninety outpatients with a diagnosis of “panic disorder» (F41.0) according to ICD-10 were enrolled through the Institute of Mental Health and Addictology. Five patients dropped out of the study due to minor side effects, predominantly lightheadedness and headaches, and 4 patients dropped out of the study for unspecified reasons. As the intention to treat analysis was not utilized due to the open label design of the study, 81 patients with PD (49 women and 32 men), mean age was 35.2 years (range […]) were studied. Patients were randomized into 2 groups: with “pure” PD (group 1) and “comorbid” PD, when it was co-diagnosed with other mental illnesses (group 2). […]
as §5

[5] = cited from earlier work
[6] = tested on: patients with panic disorder; experiment: Hospital Anxiety and Depression Scale, anxiety subscale (HADS_T), open clinical trial of xenon inhalation; type: in vivo, human; conditions: for HADS-T, V6 − V1, mean paired difference: after 6 sessions vs baseline; for HADS_T total score: after 3 sessions (V3)
Protocol: as §1, §2, §3
Patients were evaluated after each xenon inhalation and at 30 and 180 days after completion of treatment. To this end, we employed clinical psychopathological and clinical catamnestic methods, and psychometric scales that are widely used internationally to assess the treatment of mental disorders. […]

## [Xe] [xenon]
[1]; Total (n = 81)
  The frequency of minor panic attacks 6 months after treatment, Mean: .6 times/month
  The frequency of minor panic attacks 6 months after treatment, Median: .0 times/month
  The frequency of major panic attacks 6 months after treatment, Mean: .0
  The frequency of major panic attacks 6 months after treatment, Median: .0
  Changes Minor Panic Attacs_V6_V1, Mean: −42.7
  Changes Minor Panic Attacs_V6_V1, Median: −55.0
  Changes_Major Panic Attacs_V6_V1, Mean: −9.6
  Changes_Major Panic Attacs_V6_V1, Median: −7.0
[1]; both groups
  “major” panic attacks 6 months after treatment: absent
[1]; conclusion from HADS_T, CGI-I, CGI-S
  panic attacks after the 6th treatment: complete cessation of panic attacks
[1]; «Comorbid PD» (n = 39)
  The frequency of minor panic attacks 6 months after treatment, Mean: 1 times/month and 1.0 times/month
  The frequency of minor panic attacks 6 months after treatment, Median: .0 times/month
  The frequency of major panic attacks 6 months after treatment, Mean: .0
  The frequency of major panic attacks 6 months after treatment, Median: .0
  Changes Minor Panic Attacs_V6_V1, Mean: −40.7
  Changes Minor Panic Attacs_V6_V1, Median: −40.0
  Changes_Major Panic Attacs_V6_V1, Mean: −11.7
  Changes_Major Panic Attacs_V6_V1, Median: −12.0
[1]; «Pure PD» (n = 42)
  The frequency of minor panic attacks 6 months after treatment, Median: .0 times/month
  The frequency of major panic attacks 6 months after treatment, Mean: .0
  The frequency of major panic attacks 6 months after treatment, Median: .0
  Changes Minor Panic Attacs_V6_V1, Mean: −44.5
  Changes Minor Panic Attacs_V6_V1, Median: −55.0
  Changes_Major Panic Attacs_V6_V1, Mean: −7.7
  Changes_Major Panic Attacs_V6_V1, Median: −3.0
[2]; Total (n = 81)
  CGI-I, V2: Marked deterioration, share of patients: 1.2%
  CGI-I, V2: Marked improvement, share of patients: 12.3%
  CGI-I, V2: Minimal deterioration, share of patients: 1.2%
  CGI-I, V2: Minimal improvement, share of patients: 54.3%
  CGI-I, V2: No changes, share of patients: 30.9%
  CGI-I, V3: Marked improvement, share of patients: 25.9%
  CGI-I, V3: Minimal improvement, share of patients: 61.7%
  CGI-I, V3: No changes, share of patients: 12.3%
  CGI-I, V4: Marked improvement, share of patients: 54.3%
  CGI-I, V4: Minimal improvement, share of patients: 40.7%
  CGI-I, V4: No changes, share of patients: 4.9%
  CGI-I, V5: Marked improvement, share of patients: 79.0%
  CGI-I, V5: Minimal improvement, share of patients: 18.5%
  CGI-I, V5: Very marked improvement, share of patients: 2.5%
  CGI-I, V6: Marked improvement, share of patients: 66.7%
  CGI-I, V6: Very marked improvement, share of patients: 33.3%
[2]; «Comorbid PD» (n = 39)
  CGI-I, V2: Marked deterioration, share of patients: .0%
  CGI-I, V2: Marked improvement, share of patients: 12.8%
  CGI-I, V2: Minimal deterioration, share of patients: .0%
  CGI-I, V2: Minimal improvement, share of patients: 61.5%
  CGI-I, V2: No changes, share of patients: 25.6%
  CGI-I, V3: Minimal improvement, share of patients: 69.2%
  CGI-I, V3: No changes, share of patients: 20.5%
  CGI-I, V4: Marked improvement, share of patients: 25.6%
  CGI-I, V4: Minimal improvement, share of patients: 64.1%
  CGI-I, V4: No changes, share of patients: 10.3%
  CGI-I, V5: Marked improvement, share of patients: 61.5%
  CGI-I, V5: Minimal improvement, share of patients: 38.5%
  CGI-I, V5: Very marked improvement, share of patients: .0%
  CGI-I, V6: Marked improvement, share of patients: 87.2%
[2]; «Comorbid PD» (n = 39), after 6 treatments
  CGI-I, V6: Very marked improvement, share of patients: 12.8%
[2]; «Comorbid PD» (n = 39), after the third treatment
  CGI-I, V3: Marked improvement, share of patients: 10.3%
[2]; «Pure PD» (n = 42)
  CGI-I, V2: Marked deterioration, share of patients: 2.4%
  CGI-I, V2: Marked improvement, share of patients: 11.9%
  CGI-I, V2: Minimal deterioration, share of patients: 2.4%
  CGI-I, V2: Minimal improvement, share of patients: 47.6%
  CGI-I, V2: No changes, share of patients: 35.7%
  CGI-I, V3: Minimal improvement, share of patients: 54.8%
  CGI-I, V3: No changes, share of patients: 4.8%
  CGI-I, V4: Marked improvement, share of patients: 81.0%
  CGI-I, V4: Minimal improvement, share of patients: 19.0%
  CGI-I, V4: No changes, share of patients: .0%
  CGI-I, V5: Marked improvement, share of patients: 95.2%
  CGI-I, V5: Minimal improvement, share of patients: .0%
  CGI-I, V5: Very marked improvement, share of patients: 4.8%
  CGI-I, V6: Marked improvement, share of patients: 47.6%
[2]; «Pure PD» (n = 42), after 6 treatments
  CGI-I, V6: Very marked improvement, share of patients: 52.4%
[2]; «Pure PD» (n = 42), after the third treatment
  CGI-I, V3: Marked improvement, share of patients: 40.5%
[3]; group 1, after 3 xenon treatments
  HADS_D: patients in whom “clinically severe depression” was absent: 90.5%
[3]; group 1
  HADS_D: patients with “clinically severe depression”: 2.4%
[3]; group 2, after 3 xenon treatments
  HADS_D: patients in whom “clinically severe depression” was present: 82.1%
[3]; group 2
  HADS_D: patients with “clinically severe depression”: 46.2%
[4]; 5 patients
  patients dropping out from the study due to side effects: 5.8%
[4]; side effects, were rare
  tolerability of xenon therapy: generally well tolerated
[5]; during inhalational anesthesia
  time at which end-expiratory xenon concentration reached a plateau: 7 min
  time to successful loading of xenon in the brain: approximately 15 minutes
[5]; inhalation
  half-time for equilibration between xenon concentration in arterial blood and at the site of action: 1.49 ± 0.04 min
[6]; Group 1 («pure» PD, n=42, xenon monotherapy)
  HADS-T, V6 − V1, mean paired difference: −11.214
[6]; Group 1
  HADS_T total score: 13.3
[6]; Group 2 («comorbid» PD, n=39)
  HADS-T, V6 − V1, mean paired difference: −11.436
[6]; Group 2
  HADS_T total score: 13.3
[6]; both groups, end of treatment (V6)
  HADS_T overall score category: norm

— patent US20200054671A1, “TREATMENT OF ANXIETY DISORDER AND AUGMENTATION OF ANTI-ANXIETY INTERVENTIONS BY ADMINISTRATION OF NOBLE GAS CONTAINING MIXTURES” (NOBILIS THERAPEUTICS, INC., priority 2016, published 2020)
